Measurements: the supplement of paper PMC8671470

Experiments:
Conditions in all cases: 72 h
[1] = system: HL-60; assay: area under dose-response curve (viability, 1 nM-10 uM) (fraction (0-1)); higher = more sensitive
Summary of the method: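 Area under the curve, where listed, was derived from four-parameter log-logistic fits with drc and PharmacoGx. These fits used CellTiter-Glo viability from HL-60 cells in RPMI 1640 with 10% FBS, normalised to DMSO wells and wells holding 10 μM proteasome inhibitor. The full library was rescreened on 384-well plates in duplicate at five tenfold concentrations, 1–10,000 nM, with DMSO or 100 nM of one of three metabolic inhibitors, for 72 h at 37 °C, 5% CO2.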

[2] = system: HEL; assay: cell viability (% survival relative to DMSO control, bortezomib = 0%); higher = less cytotoxic
Summary of the method: (§1)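 Fifteen myeloid leukaemia cell lines (10 AML, 5 CML) were seeded at a density titrated to the linear growth range. They went into 384-well plates with compounds pre-printed at 1, 10, 100, 1000 or 10000 nM in duplicate. After 72 h at 37 °C with 5% CO2, viability was read by CellTiter-Glo luminescence. Values are percent survival, with vehicle set to 100% and a 10 µM positive control to 0%, averaged over the duplicates.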

[3] = system: KCL-22; assay: as above
Summary of the method: as §1

[4] = co-treatment: GSK2194069 100 nM
[5] = co-treatment: pictilisib 100 nM

| Compound | area under dose-response curve ([1]; co-treatment: AZD3965 100 nM) | area under dose-response curve ([1]; co-treatment: DMSO vehicle) | area under dose-response curve [1, 4] | area under dose-response curve [1, 5] | cell viability ([2]; 1 nM) | cell viability ([2]; 10 nM) | cell viability ([2]; 100 nM) | cell viability ([2]; 1000 nM) | cell viability ([2]; 10000 nM) | cell viability ([3]; 1 nM) | cell viability ([3]; 10 nM) | cell viability ([3]; 100 nM) | cell viability ([3]; 1000 nM) | cell viability ([3]; 10000 nM) |
| --- | --- | --- | --- | --- | --- | --- | --- | --- | --- | --- | --- | --- | --- | --- |
| C1CCc2nnc(C34CC5CC(CC(C5)C3)C4)n2CC1 [MERCK-544] | < 0.0301 | < 0.0301 | < 0.0301 | < 0.0301 | 104% | 106% | 95.2% | 92.4% | 132% | 99.2% | 106% | 95.8% | 106% | 116% |
| CC(C(=O)O)C(=O)O [Methylmalonate] | – | – | – | – | 87.5% | 100% | 109% | 81.5% | 95.3% | 91.7% | 100% | 112% | 88.3% | 93.6% |
| C1CCC(C(CC2CCCCN2)C2CCCCC2)CC1.O=C(O)/C=C\C(=O)O (stereo not drawn) [Perhexiline] | 0.133 | 0.125 | 0.16 | 0.198 | 108% | 82.7% | 108% | 91.3% | 14.1% | 92% | 79.3% | 94.3% | 101% | 1.14% |
| OCCN1CCN(CCCN2c3ccccc3Sc3ccc(Cl)cc32)CC1 [Perphenazine] | 0.0332 | < 0.0301 | 0.0329 | < 0.0301 | 120% | 107% | 90.1% | 108% | 107% | 122% | 107% | 102% | 111% | 39.6% |
| C=CCc1ccc2c(c1O)C(=O)c1ccccc1C2=O [R162] | < 0.0301 | < 0.0301 | < 0.0301 | < 0.0301 | 104% | 101% | 103% | 106% | 110% | 100% | 98.3% | 101% | 96.6% | 96.7% |
| O=C(c1ccc(OCCN2CCCCC2)cc1)c1c(-c2ccc(O)cc2)sc2cc(O)ccc12 [Raloxifene] | < 0.0301 | < 0.0301 | < 0.0301 | < 0.0301 | 90.2% | 97.7% | 96.3% | 98.4% | 87.4% | 93.9% | 92.7% | 100% | 94.5% | 75.8% |
| CN(C/C=C/C#CC(C)(C)C)Cc1cccc2ccccc12 [Terbinafine] | – | – | – | – | 101% | 91.1% | 110% | 96.8% | 96.6% | 101% | 96.2% | 101% | 104% | 93.2% |
| COc1cc2c(NC3CCN(C)CC3)nc(N3CCCN(C)CC3)nc2cc1OCCCN(C)C [UNC0224] | – | – | – | – | 84.8% | 114% | 106% | 98.3% | 88.6% | 98.2% | 134% | 97.6% | 94.9% | 90.7% |
| CC(C)C[C@H](NC(=O)[C@@H](O)[C@H](N)Cc1ccccc1)C(=O)O [Ubenimex] | – | – | – | – | 107% | 106% | – | 95.4% | 106% | 118% | 120% | – | 89.2% | 95.2% |
| O=P(O)(O)C(O)(Cn1ccnc1)P(=O)(O)O [Zoledronic acid] | – | – | – | – | 90.6% | 92.7% | 101% | 94.9% | 99.3% | 107% | 103% | 102% | 104% | 97.4% |
